Laboratory results published in the supplement of paper PMC10307832.

Tests used:
Assay in all cases: relative viability (nuclei count vs DMSO), 5 days (fraction); higher = more cells survive
Erlotinib + Alpelisib = compound: C#Cc1cccc(Nc2ncnc3cc(OCCOC)c(OCCOC)cc23)c1 [Erlotinib] + Cc1nc(NC(=O)N2CCC[C@H]2C(N)=O)sc1-c1ccnc(C(C)(C)C(F)(F)F)c1 [Alpelisib] (partner 2 µM)
How it was run: (§1)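 Relative viability was taken as the ratio of nuclei in treated wells to nuclei in vehicle wells. Lung cancer cell lines in 1536-well plates received compounds by pin tool one day after seeding, either one drug alone or a fixed anchor-drug dose plus five library-drug doses (not always all listed) in √10 steps. Nuclei were counted on 4× images after 5 days of treatment, and values are medians of duplicate plates.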

AT9283 + Foretinib = compound: O=C(Nc1c[nH]nc1-c1nc2ccc(CN3CCOCC3)cc2[nH]1)NC1CC1 [AT9283] + COc1cc2c(Oc3ccc(NC(=O)C4(C(=O)Nc5ccc(F)cc5)CC4)cc3F)ccnc2cc1OCCCN1CCOCC1 [Foretinib] (partner 0.25 µM)
How it was run: as §1

AT9283 + AZD7762 = compound: O=C(Nc1c[nH]nc1-c1nc2ccc(CN3CCOCC3)cc2[nH]1)NC1CC1 [AT9283] + NC(=O)Nc1cc(-c2cccc(F)c2)sc1C(=O)N[C@H]1CCCNC1 [AZD7762] (partner 0.2 µM)
How it was run: as §1

AT9283 + Pemetrexed = compound: O=C(Nc1c[nH]nc1-c1nc2ccc(CN3CCOCC3)cc2[nH]1)NC1CC1 [AT9283] + Nc1nc2[nH]cc(CCc3ccc(C(=O)N[C@@H](CCC(=O)O)C(=O)O)cc3)c2c(=O)[nH]1 [Pemetrexed] (partner 0.2 µM)
How it was run: as §1

AT9283 + Vorinostat = compound: O=C(Nc1c[nH]nc1-c1nc2ccc(CN3CCOCC3)cc2[nH]1)NC1CC1 [AT9283] + O=C(CCCCCCC(=O)Nc1ccccc1)NO [Vorinostat] (partner 1 µM)
How it was run: as §1

Row | Cell Line | relative viability (Erlotinib + Alpelisib; first compound 0.02 µM) | relative viability (Erlotinib + Alpelisib; first compound 0.2 µM) | relative viability (Erlotinib + Alpelisib; first compound 0.6325 µM) | relative viability (Erlotinib + Alpelisib; first compound 2 µM) | relative viability (AT9283 + Foretinib; first compound 0.003 µM) | relative viability (AT9283 + Foretinib; first compound 0.03 µM) | relative viability (AT9283 + Foretinib; first compound 0.09487 µM) | relative viability (AT9283 + Foretinib; first compound 0.3 µM) | relative viability (AT9283 + AZD7762; first compound 0.003 µM) | relative viability (AT9283 + AZD7762; first compound 0.03 µM) | relative viability (AT9283 + AZD7762; first compound 0.09487 µM) | relative viability (AT9283 + AZD7762; first compound 0.3 µM) | relative viability (AT9283 + Pemetrexed; first compound 0.003 µM) | relative viability (AT9283 + Pemetrexed; first compound 0.03 µM) | relative viability (AT9283 + Pemetrexed; first compound 0.09487 µM) | relative viability (AT9283 + Pemetrexed; first compound 0.3 µM) | relative viability (AT9283 + Vorinostat; first compound 0.003 µM) | relative viability (AT9283 + Vorinostat; first compound 0.03 µM) | relative viability (AT9283 + Vorinostat; first compound 0.09487 µM) | relative viability (AT9283 + Vorinostat; first compound 0.3 µM)
1 | HCC-78 | 0.353 | 0.337 | 0.305 | 0.186 | 0.5 | 0.485 | 0.331 | 0.305 | 0.593 | 0.44 | 0.353 | 0.234 | 0.905 | 0.896 | 0.924 | 0.919 | 0.384 | 0.385 | 0.258 | 0.229
2 | IA-LM | 0.984 |  | 0.7 | 0.789 | 1.21 | 0.391 | 0.105 | 0.0774 |  |  |  |  |  |  |  |  | 0.927 | 0.624 | 0.144 | 0.111
3 | NCI-H520 | 0.932 | 0.934 | 1.17 |  | 0.95 | 0.326 | 0.337 | 0.295 |  |  |  |  | 0.702 | 0.302 | 0.303 | 0.198 | 0.56 | 0.271 | 0.223 | 0.235
4 | NCI-H522 |  |  |  |  |  |  |  |  | 0.626 | 0.582 | 0.399 | 0.37 | 0.949 | 0.78 | 0.746 | 0.499 | 0.782 | 0.549 | 0.527 | 0.376
5 | NCI-H661 | 0.545 | 0.556 | 0.782 | 0.426 | 1.01 | 0.472 | 0.384 | 0.364 |  |  |  |  | 0.932 | 0.449 | 0.405 | 0.385 | 0.858 | 0.359 | 0.316 | 0.384
6 | NCI-H727 | 0.612 | 0.48 | 0.459 | 0.463 | 0.689 | 0.649 | 0.437 | 0.331 | 0.684 | 0.574 | 0.37 | 0.383 |  |  |  |  | 1.07 | 0.866 | 0.815 | 0.499
7 | NCI-H1299 | 1.07 | 1.03 | 1.1 | 1.03 | 1.13 | 0.541 | 0.415 | 0.373 |  |  |  |  |  |  |  |  |  |  |  | 
8 | NCI-H1563 | 0.931 |  | 0.952 | 0.799 | 0.906 | 0.765 | 0.708 | 0.633 |  |  |  |  | 0.751 | 0.66 | 0.559 | 0.513 |  |  |  | 
9 | NCI-H1623 |  |  |  |  | 0.91 | 0.837 | 0.612 | 0.487 |  |  |  |  |  |  |  |  |  |  |  | 
10 | NCI-H1648 |  |  |  |  |  |  |  |  | 0.465 | 0.631 | 0.368 | 0.37 | 0.579 | 0.553 | 0.493 | 0.386 | 0.378 | 0.468 | 0.325 | 0.308
11 | NCI-H1650 |  |  |  |  | 1.2 | 0.985 | 0.46 | 0.327 |  |  |  |  | 0.358 | 0.362 | 0.361 | 0.28 | 0.608 | 0.487 | 0.375 | 0.194
12 | NCI-H1703 | 0.367 | 0.321 | 0.352 | 0.296 | 0.335 | 0.254 | 0.273 | 0.228 | 0.12 | 0.108 | 0.0955 | 0.106 |  |  |  |  |  |  |  | 
13 | NCI-H1792 |  | 0.595 | 0.77 | 0.49 |  |  |  |  | 0.601 | 0.647 | 0.432 | 0.262 | 0.783 | 0.945 | 0.805 | 0.167 |  |  |  | 
14 | NCI-H2009 | 1.24 | 1.16 | 1.17 | 1.13 | 1.29 | 1.07 | 0.438 | 0.29 |  |  |  |  | 1.03 | 0.983 | 0.713 | 0.243 | 0.742 | 0.674 | 0.29 | 0.147
15 | NCI-H2023 | 0.64 | 0.525 | 0.453 | 0.401 | 0.739 | 0.86 | 0.301 | 0.108 |  |  |  |  | 0.214 | 0.199 | 0.126 | 0.102 | 0.527 | 0.344 | 0.149 | 0.144
16 | NCI-H2228 | 0.906 | 0.858 | 0.716 | 0.642 | 0.968 | 0.613 | 0.26 | 0.104 |  |  |  |  | 0.337 | 0.244 | 0.181 | 0.16 | 0.655 | 0.277 | 0.133 | 0.103
17 | NCI-H2342 |  |  |  |  | 1.2 | 1.01 | 0.547 | 0.367 | 0.439 | 0.364 | 0.36 | 0.4 | 0.793 | 0.619 | 0.603 | 0.387 | 0.804 | 0.576 | 0.59 | 0.409
18 | SK-LU-1 | 1.36 | 1.01 | 0.962 | 0.631 | 0.925 | 0.385 | 0.214 | 0.27 |  |  |  |  | 1.16 | 0.663 | 0.396 | 0.391 | 0.904 | 0.418 | 0.329 | 0.314
19 | SK-MES-1 | 0.926 | 0.536 | 0.533 | 0.298 | 0.924 | 0.863 | 0.604 | 0.143 |  |  |  |  | 1.07 | 0.843 | 0.429 | 0.218 | 1.19 | 1.03 | 0.304 | 0.154
20 | SW 900 |  |  |  |  | 1.1 | 0.898 | 0.866 | 0.366 | 0.478 | 1.15 | 0.545 | 0.271 | 0.326 | 0.468 | 0.423 | 0.32 | 0.424 | 0.358 | 0.298 | 0.199
21 | SW 1573 | 0.805 | 0.706 | 0.87 |  | 0.621 | 0.423 | 0.239 | 0.233 |  |  |  |  | 0.813 | 0.302 | 0.182 | 0.121 | 0.835 | 0.211 | 0.165 | 0.133
22 | UMC-11 | 0.986 | 1.06 | 1.21 | 1.05 | 0.996 | 0.181 | 0.175 | 0.184 |  |  |  |  | 0.768 | 0.158 | 0.196 | 0.193 | 0.359 | 0.109 | 0.117 | 0.124
